1 molecule from US20210386668A1, “Cyclodextrin for use in the treatment and prevention of late phase bronchoconstriction in allergen-induced asthma” (Universite de Liege, priority 2020, published 2021) can be followed below.

For this data set, the system named is BALB/c mice, house dust mite (HDM)-induced inflammation and AHR. The format is in vivo. On the procedure: The impact of HPBCD on asthma-associated inflammation and bronchial hyperresponsiveness was investigated in a mouse model of airway inflammation and hyperresponsiveness.
Six to seven mice per group were tested. Two-tailed Mann-Whitney test were performed with p-values of *P<0.05, **P<0.01 in two independent experiments.
Two intranasal instillations of house dust mite were performed on days 0 and 7 to induce the migration of specific memory CD4+ T-cells into lung parenchyma, followed by a challenge instillation on day 14. […] The last house dust mite instillation was preceded by two days of HPBCD or PBS inhalations and followed by three inhalations until sacrifice (FIG. 1A). […] Airway responsiveness was evaluated by exposing animals to increasing doses of inhaled methacholine and by measuring Newtonian resistances representing the resistance of central or conducting airways. […] The bronchoalveolar lavage fluid (BALF) was then recovered and analyzed for cell content. […] The effect of HPBCD inhalation on T-cell numbers in lung parenchyma was investigated by flow cytometry.
Males BALB/c mice of 6 to 8 weeks old were purchased from Janvier Labs (Saint-Berthevin, France). All mice were bred and housed in University facilities. All experiences and protocols were previously approved by local ethic (animal care and use) committee from the University of Liege.
Mice were lightly isoflurane-anesthetized and received an intra-nasal (i.n) instillation of HDM extract (100 μg; 50 μl) in endotoxin-free saline on days 0, 7 and 14. Mice were subjected to inhalation (generated by ultrasonic nebulizer (Devilbiss 2000)) of HPBCD 10 mM or endotoxin-free saline for 40 minutes between day 12 and 16. On day 14, they received the inhalation 1 h before the last i.n. instillation of HDM. After measurement of bronchial responsiveness using the FlexiVent System, mice were sacrificed on day 17. Mice submitted to ovalbumin as allergen were i.p injected with 10 mcg ovalbumin grade 5 and exposed to ovalbumin grade 3 by inhalation between day 21 and 25. Mice were treated with HPBCD 10 mM given by inhalation between day 19 and 25. After measurement of bronchial responsiveness using the FlexiVent System, mice were sacrificed on day 26.
Mice were anesthetized by intraperitoneal injection with a mixture of ketamine (10 mg/ml, Merial, Brussel, Belgium) and xylazine (1 mg/ml, VMD, Arendonk, Belgium). A tracheotomy was performed by insertion of a 20 gauge polyethylene catheter into the trachea. Mice were ventilated with a flexiVent small animal Ventilator® (SCIREQ, Montreal, Canada) as previously described (18). Respiratory parameters following methacholine challenge (3, 6, and 12 gr/l (or 24 gr/l)) were evaluated using a 3 sec broadband signal to measure input impedance from 1 to 20.5 Hz and to calculate constant-phase model parameters (Quick-prime 3). Newtonian resistance (Rn) was the main parameter measured during the challenge.
Mice were sacrificed and a bronchoalveolar lavage was performed using PBS-EDTA 0.05 mM (Calbiochem, Darmstadt, Germany). Cells were recovered by gentle manual aspiration. After centrifugation of bronchoalveolar fluid (BALF) (1200 rpm; 10 min; 4° C.), the cell pellet was resuspended in 0.5 ml PBS-EDTA 0.05 mM. The differential cell counts were performed on cytocentrifuged preparations (Cytospin) after Diff-Quick (Dade, Belgium) staining.
Left lung was excised and snap frozen in liquid nitrogen. Right lung was infused with 4% paraformaldehyde, embedded in paraffin and used for histology. Sections of 5 μm thickness were cut off from paraffin and were stained with haematoxylin-eosin to estimate the extent of inflammation (18) and with Alcian blue (mucin stain).
To obtain single-lung-cell suspensions, lungs were perfused with 10 ml HBSS through the right ventricle, razor-cut into small pieces and digested for 1 hour at 37° C. in 1 mg/ml collagenase A (Roche) and 0.05 mg/ml DNasel (Roche) in HBSS. […]

Structures are written as SMILES.

Regarding `CC(O)COC[C@H]1O[C@@H]2O[C@H]3[C@H](O)[C@@H](O)[C@@H](O[C@H]4[C@H](O)[C@@H](O)[C@@H](O[C@H]5[C@H](O)[C@@H](O)[C@@H](O[C@H]6[C@H](O)[C@@H](O)[C@@H](O[C@H]7[C@H](O)[C@@H](O)[C@@H](O[C@H]8[C@H](O)[C@@H](O)[C@@H](O[C@H]1[C@H](O)[C@H]2O)O[C@@H]8COCC(C)O)O[C@@H]7COCC(C)O)O[C@@H]6COCC(C)O)O[C@@H]5COCC(C)O)O[C@@H]4COCC(C)O)O[C@@H]3COCC(C)O` (stereo partly drawn) [HPBCD, 2-hydroxypropyl-beta-cyclodextrin], the “airway responsiveness to methacholine (Newtonian resistance)” value (HPBCD 10 mM inhalation vs PBS, HDM-challenged mice, FIG. 1B) is on record as “significantly decreased”. For the same molecule, the “extent of inflammation around the bronchi” value (HPBCD vs placebo, FIG. 1D) was “reduced”. Moreover, the “number of Alcian blue positive mucus producing epithelial cells” value (HPBCD vs placebo, FIG. 1E) was “reduced”. Under “HPBCD-exposed vs placebo, FIG. 1C”, the “eosinophilic inflammation in BALF” value is recorded as “significantly decreased”. Further, for the setting “mouse, in vivo”, the “number of TH2 cells (CD3+CD4+T1ST2+ ICOS+) in lung parenchyma” value is on record as “nor the number of TH2 cells (CD3+CD4+T1ST2+ ICOS+) were modified” and the “number of total CD4+ T-cells (CD3+CD4+) in lung parenchyma” value is on record as “Neither the number of total CD4+ T-cells (CD3+CD4+) nor the number of TH2 cells (CD3+CD4+T1ST2+ ICOS+) were modified”.
